Reference: patent US7488718B2, “Synthetic HLA binding peptide analogues and uses thereof” (Sloan Kettering Institue for Cancer Research, priority 2003, dated 2009)
Residues, ends and D or L forms follow the SMILES beside them.

Experiments:
[1] = system: HLA matched chronic myelogenous leukemia cell lines or CML blasts; settings: T cells generated with analogue peptide
Protocol: Supernatant fluids were harvested and radioactivity was measured in a gamma counter. Percent specific lysis was determined from the following formula: 100×[(experimental release minus spontaneous release)/(maximum release minus spontaneous release)].

CD8+ T cells = experiment: Gamma interferon ELISPOT, CD8+ T cells after in vitro peptide stimulation; assay type: cell-based, human; settings: healthy HLA A0201 donors, peptide-pulsed T2 targets
[2] = target: T1, HLA-A0201 molecules on T2 cells (Homo sapiens, UniProt P04439, D140Y/D185E/D98H/E176V/E277Q/G131W/G231S/I119V/I121R/I166T/I218V/L300P/L318F/N151K/N90K/P208A/P217A/Q86G/Q94H/R138H/R169H/T345S); experiment: T2 assay for peptide binding to HLA A0201; settings: for binding to HLA A0201 molecules in T2 assay: bcr-abl b3a2 and b2a2 peptides
T1 construct: increase in the level of surface HLA-A0201 recognizable by specific mAb such as BB7.2; endogenous in cells; host or cells: T2 cells (human, TAP-deficient, HLA-A0201+)
Protocol: T2 cells (TAP−, HLA-A0201 +) were incubated overnight at 27° C. at 1×10E6 cells/ml in FCS-free RPMI medium supplemented with 5 μg/ml human β2 m (Sigma, St Louis, Mo.) in the absence, i.e., negative control, or presence of either a positive reference tyrosinase peptide or test peptides at various final concentrations of 50, 10, 1, and 0.1 μg/ml. Following a 4 h incubation with 5 μg/ml brefeldin A (Sigma), T2 cells were labeled for 30 min at 4° C. with a saturating concentration of anti-HLA-A2.1 (BB7.2) mAb, then washed twice. The cells then were incubated for 30 min at 4° C. with a saturating concentration of FITC-conjugated goat IgG F(ab′)2 anti-mouse Ig (Caltag, South San Francisco, Calif.), washed twice, fixed in PBS/1% paraformaldehyde and analyzed using a FACS Calibur cytofluorometer (Becton Dickinson, Immunocytometry systems, San Jose, Calif.).
The mean intensity of fluorescence (MIF) observed for each peptide concentration, after subtraction of the MIF observed without peptide, was used as an estimate of peptide binding. Stabilization assays were performed similarly. Following initial evaluation of peptide binding at time 0, cells were washed in RPMI complete medium to remove free peptides and incubated in the continuous presence of 0.5 μg/ml brefeldin-A for 2, 4, 6, and 8 hours. The amount of stable peptide-HLA-A2.1 complexes was estimated as described above by indirect immunofluorescence analysis. The half time of complexes is an estimate of the time required for a 50% reduction of the time 0 mean intensity of fluorescence value.
The immunogenicity of MHC class I-restricted peptides requires the capacity to bind and stabilize MHC class I molecules on the live cell surface. Moreover the computer prediction models above have only 60-80% predictive accuracy. Direct measurement of the strength of the interaction between the peptides and the HLA-A0201 molecule was made using a conventional binding and stabilization assay that uses the antigen-transporting deficient (TAP2-) HLA-A0201 human T2 cells. T2 cells lack TAP function and consequently are defective in properly loading class I molecules with antigenic peptides generated in the cytosol. The association of exogenously added peptides with thermolabile, empty HLA-A2 molecules stabilizes them and results in an increase in the level of surface HLA-A0201 recognizable by specific mAb such as BB7.2.

CD3+ T cells = experiment: Gamma interferon ELISPOT, CD3+ T cells after in vitro peptide stimulation; assay type: cell-based, human; settings: healthy HLA A0201 donors
HLA A0201 = HLA A0201 (Homo sapiens, UniProt P04439, D140Y/D185E/D98H/E176V/E277Q/G131W/G231S/I119V/I121R/I166T/I218V/L300P/L318F/N151K/N90K/P208A/P217A/Q86G/Q94H/R138H/R169H/T345S); experiment: BIMAS predicted binding score for HLA A0201; settings: p210F versus native CMLA2
Protocol: The synthetic peptide analogue segments are designed by making one or two amino acid substitutions in anchor or auxiliary residues. Although the native peptides particularly described herein are nonamers encompassing the anchor or auxiliary residues, analogues may be designed having about 70% to about 130% of the amino acids in the native peptide. In the instant invention the synthetic peptide analogues may have about 8-12 amino acids. Such substitutions are determined by a bioinformatic model system (BIMAS) which uses a matrix approach to predict binding and ranks the peptides based on predicted binding to the HLA molecule. The amino acid sequences and predicted score for binding to HLA A0201 and HLA A0301 are generated by online software BIMAS available at http://bimas.dcrt.nih.gov/cgi-bin/molbio/ken parker comboform and […] available at http://syfpeithi.bmi-heidelberg.com/.
Based on this information and by using the software of the Bioinformatics & Molecular Analysis Section (National Institutes of Health, Washington, D.C.) available at http://bimas.dcrt.nih.gov/cgi-bin/molbio/ken parker comboform. This software ranks 9-mer or 10-mer peptides on a predicted half-time dissociation coefficient from HLA class I molecules (Pinilla, et al. Curr Opin Immunol, 11(2): p. 193-202 (1999)). […]

In the case of CC[C@H](C)[C@H](NC(=O)[C@H](CC(C)C)NC(=O)[C@@H](N)Cc1ccc(O)cc1)C(=O)N[C@@H](CC(N)=O)C(=O)N[C@@H](CCCCN)C(=O)N[C@@H](CCC(=O)O)C(=O)N[C@@H](CCC(=O)O)C(=O)N[C@@H](C)C(=O)N[C@@H](CC(C)C)C(=O)O [b3a2 A3, YLINKEEAL] (H-YLINKEEAL-OH; N-terminus and C-terminus assumed), the “cytotoxicity against CML cells expressing b3a2 or b2a2” value [1] is reported as “Significant cytotoxicity was generated”.

In the case of CC(C)C[C@H](NC(=O)[C@H](CC(C)C)NC(=O)[C@@H](N)CCCCN)C(=O)N[C@@H](CCC(N)=O)C(=O)N[C@@H](CCCNC(=N)N)C(=O)N1CCC[C@H]1C(=O)N[C@H](C(=O)N[C@@H](C)C(=O)N[C@H](C(=O)O)C(C)C)C(C)C [p210C] (H-KLLQRPVAV-OH; N-terminus and C-terminus assumed), the “cytotoxicity against CML cells expressing b3a2 or b2a2” value [1] is reported as “Significant cytotoxicity was generated”.

KLSSKALQV (analogue peptide p210B) was tested, and the “immune response, IFN gamma secretion” value (CD8+ T cells) was “No immune response could be generated”.

For KQSSKALQV (analogue peptide p210A), the “immune response, IFN gamma secretion” value (CD8+ T cells) was “No immune response could be generated”.

For “SSKALQRPV (native peptide CMLA2) [reference compound]”, the “binding to HLA A0201 molecules in T2 assay” value (“binding … in T2 assay” for short) [2] was “weak binder” and the “binding … in T2 assay” value ([2]; listed as CML A2) was “natural weak binder”.

With TLFKQSSKV (analogue peptide p210D) the “immune response, IFN gamma secretion” value (CD8+ T cells) was “produced an immune response in some of the donors tested”.

In the case of YLFKQSSKV (analogue peptide p210E), the “immune response, IFN gamma secretion” value (CD8+ T cells) is reported as “produced an immune response in some of the donors tested”.

In the case of YLGATLKGV (analogue peptide WT-1 D1), the “binding to HLA A0201, thermostabilization on T2” value ([2]; WT-1 peptides) is reported as “significantly higher level of binding to HLA-A0201 over WT1-D”.

In the case of YLINKEEAV (analogue peptide b3a2 A4), the “immune response, gamma interferon secretion” value (CD3+ T cells) is reported as “generated an immune response in two healthy donors”.

YLINKVEAL (analogue peptide b3a2 A5) was tested, and the “immune response, gamma interferon secretion” value (CD3+ T cells) was “generated an immune response in two healthy donors”.

YLKALQRPV (analogue peptide p210F) was tested, and the “binding … in T2 assay” value [2] was “excellent avidity for HLA A0201 molecules”, the “immune response, IFN gamma secretion” value (CD8+ T cells) was “generated a more consistent and higher immune-responses” and the BIMAS prediction improvement (HLA A0201) was 700 fold.
